Tests used:
Type in all cases: in vivo, rat
rats [1] = assay: Phase II: dose-responsive hypotensive effects of the individual agents, ED30/ED50 relative to sodium nitroprusside; conditions: for ED50: Rattus norvegicus; for ED30: dose causing 30% of the maximal drop in blood pressure produced by sodium nitroprusside 30 μg/kg i.v.
Protocol: (S)-amlodipine malate and seven ARBs (candasartan, eprosartan, irbesartan, losartan, olmesartan, telmisartan and valsartan) were evaluated. The study was conducted in three parts. Phase I evaluated the time-course of the hypotensive actions of all eight agents ([S]-amlodipine and the seven ARBs). In Phase II, the dose-responsive effects of [S]-amlodipine malate and the seven ARBs were evaluated individually. […] In Phase III, the dose response to [S]-amlodipine was evaluated in the presence and absence of the ED30 and ED50dose of each of the seven ARBs, with the objective of comparing the extent to which each ARB, at its ED30 or ED50, shifted the dose-response curve of [S]-amlodipine to the left and thus, lowering the apparent ED50 of the calcium channel blocker.
(§1) The jugular vein and the carotid artery were cannulated with PE-50 tubing for drug administration and recording of cardiovascular parameters, respectively. Blood pressure was recorded from the carotid artery by means of a pressure transducer and heart rate was derived electronically from the blood pressure signal. The signal output derived electronically from the arterial pressure was analyzed with a digital computer. The software IOX-16 continuously recorded the data every 5 sec during the entire procedure for each rat. Raw arterial pressure (in mmHg) and heart rate (beats per min), as well as changes in these two parameters relative to baseline or pre-drug levels (for doses other than initial dose), both in raw units (mm Hg or beats per min [bpm]) and as percentage change from baseline were captured and analyzed. The animals were allowed to equilibrate for 15-20 min before any treatment.
(§2) Doses are expressed in terms of free active substance. Each treatment was administered in a volume of 1 mL/kg by slow (over 20-30 seconds) i.v. bolus for all test articles, in all three phases.
(§3) The data were reported as mean±S.E.M. (standard error of the mean) from 3-5 rats per group. Raw arterial pressure (in mmHg) and heart rate (beats per min), as well as changes in these two parameters relative to baseline or pre-drug levels (for doses other than initial dose), both in raw units (mmHg or beats per min [bpm]) and as percentage change from baseline, were captured and analyzed.

rats [2] = assay: Phase III: dose response to (S)-amlodipine malate in the absence and presence of an ARB; conditions: for ED50: Rattus norvegicus, iv, ARB given at its ED30, read-out: apparent ED50 of (S)-amlodipine malate when combined with the ARB; for Potential Dosage Adjustment (%): extent to which (S)-amlodipine malate could be lowered when co-administered with the ARB; for position/shift of the dose response curve of (S)-amlodipine malate plus ARB versus (S)-amlodipine malate alone: ARB given at its ED30, FIGS. 1A and 1B
Protocol: (§4) (S)-amlodipine malate and seven ARBs (candasartan, eprosartan, irbesartan, losartan, olmesartan, telmisartan and valsartan) were evaluated. The study was conducted in three parts. Phase I evaluated the time-course of the hypotensive actions of all eight agents ([S]-amlodipine and the seven ARBs). In Phase II, the dose-responsive effects of [S]-amlodipine malate and the seven ARBs were evaluated individually. From this phase of the study, ED30 and ED50 doses of each of the seven ARBs were identified, defined as the dose that produced 30 or 50 percent of the hypotensive effect produced by a rapid i.v. injection (30 μg/kg) of sodium nitroprusside (NTP), a short-acting vasodilator. In Phase III, the dose response to [S]-amlodipine was evaluated in the presence and absence of the ED30 and ED50dose of each of the seven ARBs, with the objective of comparing the extent to which each ARB, at its ED30 or ED50, shifted the dose-response curve of [S]-amlodipine to the left and thus, lowering the apparent ED50 of the calcium channel blocker.
as §1, with “Animals were anesthetized with thiobutabarbital sodium (Inactin®, 150 mg/kg, delivered i.p.), tracheotomized and placed on a thermostatically controlled heating pad (37-38° C.). The jugular” for “The jugular”
as §2, §3
ED30 and ED50 for each drug were defined as the dose causing a decline in arterial pressure corresponding to 30% and to 50%, respectively, of the maximal drop in blood pressure produced by fast bolus i.v. injection (30 μg/kg) of sodium nitroprusside.
Dose-response curves with (S)-amlodipine malate in the absence and presence of each of the seven ARBs at its ED30 are shown in FIGS. 1A and 1B. The data shown in the figures are from experiments in which ED30 doses of each of the ARBs was combined with (S)-amlodipine malate. These were chosen because ED30 doses were obtainable by direct interpolation of dose response curves from Phase II. For several of the ARBs, doses corresponding to ED50 were obtained from extrapolation of their dose response curves.

rats [3] = test system: rats
Protocol: as §4
as §1, with “Animals were anesthetized with thiobutabarbital sodium (Inactin®, 150 mg/kg, delivered i.p.), tracheotomized and placed on a thermostatically controlled heating pad (37-38° C.). The jugular” for “The jugular”
as §2, §3

[4] = iv, hypotensive effect did not reach 50% of the maximum NTP effect, read-out: ED50 (extrapolated from dose response curve)
[5] = iv, dose causing 50% of the maximal drop in blood pressure produced by sodium nitroprusside 30 μg/kg i.v., read-out: ED50 (estimated)

Row | SMILES | ED50 (rats [1]; [4]) [mg/kg] | ED30 (rats [1]; i.v.) [mg/kg] | ED50 (rats [2]) [mg/kg] | Potential Dosage Adjustment (%) (rats [2]) | position/shift of the dose response curve of (S)-amlodipine malate plus ARB versus (S)-amlodipine malate alone (rats [2]) | further results
1 | CCCCc1nc(Cl)c(CO)n1Cc1ccc(-c2ccccc2-c2nnn[nH]2)cc1 [Losartan, 2-butyl-4-chloro-1-[[2′-(1H-tetrazol-5-yl)[1,1′-biphenyl]-4-yl]methyl]-1H-imidazole-5-methanol] | 10 | 0.625 | 0.078 | 15 | – | maximum decrease in MBP from baseline values (rats [1]; reached with 3,000 μg/kg i.v.): 23±3%
2 | CCCCC(=O)N(Cc1ccc(-c2ccccc2-c2nnn[nH]2)cc1)[C@H](C(=O)O)C(C)C [Valsartan, N-(1-oxopentyl)-N-[[2′-(1H-tetrazol-5-yl)[1,1′-biphenyl]-4-yl]methyl]-L-valine] | ~4 | 0.229 | 0.063 | 32 | greatest leftward shift | fall in MBP from baseline values at the next higher dose (rats [1]; 1000 mg/kg i.v.): 19±3%; maximum decrease in MBP from baseline values (rats [1]; reached with 300 μg/kg i.v.): 18±3%
3 | CCOC(=O)C1=C(COCCN)NC(C)=C(C(=O)OC)[C@@H]1c1ccccc1Cl.O=C(O)C[C@H](O)C(=O)O [(S)-amlodipine malate, (S)-Amlodipine-L-Malate] | – | 0.056 | – | – | – | time post-injection to maximum/peak hypotensive effect (rats [3]; 100 μg/kg i.v.): 35 to 55 min; maximum effect, decrease in blood pressure (rats [3]; 100 μg/kg i.v., anesthetized rats): 14-17 mmHg; maximum decline in MBP from baseline values (rats [1]; doses 3 to 300 μg/kg i.v.): 49±1%; ED50 (estimated) (rats [1]; i.v., dose causing 50% of the maximal drop in blood pressure produced by sodium nitroprusside 30 μg/kg i.v.): 0.11 mg/kg; HR after injection of each dose (rats [1]; rat, in vivo, iv): gradually and concomitantly increased; ED50 of (S)-amlodipine malate in the absence of an ARB (rats [2]; i.v., no ARB): 0.092 mg/kg
4 | CCOc1nc2cccc(C(=O)O)c2n1Cc1ccc(-c2ccccc2-c2nnn[nH]2)cc1 [Candasartan, 2-ethoxy-1-[[2′-(1H-tetrazol-5-yl)[1,1′-biphenyl]-4-yl]methyl]-1H-benzimidazole-7-carboxylic acid] | – | 0.008 | – | – | offset | time post-injection to maximum decline of MBP (rats [3]; 30 μg/kg i.v.): 30 min; maximum declines of mean blood pressure (MBP) (rats [3]; 30 μg/kg i.v., at 30 min post-injection): about 20 mmHg; decline in MBP at the next higher dose (rats [1]; 300 mg/kg i.v.): no further decline; ED50 (rats [1]; [5]): 0.052 mg/kg; maximum decrease in MBP from baseline values (rats [1]; reached with 100 μg/kg i.v.): 34±2%
5 | CCCc1nc2c(C)cc(-c3nc4ccccc4n3C)cc2n1Cc1ccc(-c2ccccc2C(=O)O)cc1 [Telmisartan, 4′-[(1,4′-dimethyl-2′-propyl[2,6′-bi-1H-benzimidazol]-1′-yl)methyl]-[1,1′-biphenyl]-2-carboxylic acid] | ~2 | 0.242 | – | – | offset | fall in MBP from baseline values at the next higher dose (rats [1]; 1000 mg/kg i.v.): 23±3%; maximum decrease in MBP from baseline values (rats [1]; reached with 300 μg/kg i.v.): 19±2%
6 | CCCCC1=NC2(CCCC2)C(=O)N1Cc1ccc(-c2ccccc2-c2nnn[nH]2)cc1 [Irbesartan, 2-butyl-3-[[2′-(1H-tetrazol-5-yl)[1,1′-bephenyl]-4-yl]methyl]-1,3-diazaspiro[4,4]non-1-en-4-one] | – | 0.649 | 0.071 | 23 | – | ED50 (rats [1]; [5]): 2.21 mg/kg; maximum decrease in MBP from baseline values (rats [1]; reached with 3,000 μg/kg i.v.): 28±1%
7 | CCCCc1ncc(/C=C(\Cc2cccs2)C(=O)O)n1Cc1ccc(C(=O)O)cc1 [Eprosartan, (E)-α-[[2-butyl-1-[(4-carboxyphenyl)methyl]-1H-imidazol-5-yl]methylene]-2-thiophenepropanoic acid] | ~7 | 0.104 | 0.07 | 24 | – | fall in MBP from baseline values at the next higher dose (rats [1]; 3000 mg/kg i.v.): 23±2%; maximum decrease in MBP from baseline values (rats [1]; reached with 1000 μg/kg i.v.): 22±2%
